# Test system: HEK293T-Rex XBP1-RLuc
# Assay: EC50 for XBP1-RLuc reporter activation
# Conditions: 18 h
# Procedure: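 Dose-response of hit compounds in HEK293T-Rex cells stably expressing ERSE-FLuc or XBP1-RLuc reporters, 18 hr treatment, 1536-well; luminescence normalised to 500 nM thapsigargin (100%) and DMSO (0%), fitted to give EC50 (M) and maximal activation; '>' marks EC50 above the top tested dose (~17 µM).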
row,SMILES,EC50 for XBP1-RLuc reporter activation [µM]
1,O=C(NC(c1ccccc1)c1ccccc1)c1csc(-c2cnccn2)n1,> 16.9
2,O=[N+]([O-])c1ccc(N/N=C/c2ccccc2O)cc1,13
3,O=C(N/N=C/c1ccc2c(c1)OCO2)c1cccc(F)c1,> 16.9
4,COc1ccc2oc(=Nc3cc(F)ccc3F)c(C(N)=O)cc2c1,> 14.7
5,CCCc1cc(C(=O)Nc2cc(C)ccc2O)no1,> 16.9
6,O=C1/C(=C/c2ccc(O)c(O)c2)SC(=S)N1c1ccc(O)cc1,> 16.9
7,Cc1ccc(C(=O)Nc2ccccc2N)cc1,> 14.7
8,O=[N+]([O-])c1ccc2nc(/C=C/c3ccccc3)[nH]c2c1,> 16.9
9,Cc1ccc(O)c(-c2cc(-c3ccc(F)cc3)n[nH]2)c1,> 19
10,CC(C)c1ccc(NC(=O)/C=C/c2ccco2)cc1,> 17.2
11,Nc1nc(Nc2ccc(Cl)cc2)nc2ccccc12,8.74
12,O=c1[nH]c(/C=C2\C=Nc3ccccc32)c(O)n1-c1ccc(Cl)cc1,4.87
13,O=C(Nc1ccc(Cl)cn1)c1ccc(Cl)cc1Cl,> 15.2
14,O=C(CCCN1CCC2(CC1)C(=O)NCN2c1ccccc1)c1ccc(F)cc1,3.23
15,O=C(Nc1nc2c(s1)CCCC2)c1cccc2ccccc12,> 18.2
16,COc1ccc(-c2nn(-c3ccccc3)cc2/C=C/C(=O)O)cc1[N+](=O)[O-],> 18.5
17,Nc1ccc2nc(-c3ccccn3)[nH]c2c1,> 16.9
18,COC(=O)c1ccc(C(=O)Nc2ccccc2N)cc1,> 17.8
19,CCOc1cc(/C=C2/NC(=O)N(c3cccc(Cl)c3)C2=O)ccc1O,11.9
20,Cc1cnc(NC(=O)c2sc3nc4c(C)cccc4cc3c2N)s1,6.88
21,Cc1ccc(O)c(NC(=O)c2cc(-c3ccco3)on2)c1,> 16.9
22,OCCNc1nc(Nc2ccc(Cl)c(Cl)c2)nc2ccccc12,4.98
23,Cc1cc(C)nc(/N=C(\N)Nc2ccc(OCc3ccc(Cl)cc3)cc2)n1,2.03
24,c1ccc2cc(-c3cnnc(N4CCOCC4)n3)ccc2c1,> 16.9

row,SMILES,EC50 for XBP1-RLuc reporter activation [µM]
1,Cn1c(-c2cccc(Cl)c2)cnc1NC(=O)c1ccccc1,> 16.9
2,Cc1ccc(NC(=O)/C=C/c2ccco2)nc1,> 16.9
3,C(=C\c1ccccc1)/C=N/Nc1nc2ccccc2[nH]1,> 18
4,Cc1cc(C)nc(/N=C(\N)Nc2ccc(OCc3ccccc3)cc2)n1,0.788
5,CC(=O)Oc1ccc2cc(NC(=O)c3ccc(C)cc3)c(=O)oc2c1,> 15.1
6,Nc1ccccc1NC(=O)c1ccc(Cl)cc1,> 17.2
7,Cc1ccc(O)c(-c2cc(-c3cccs3)[nH]n2)c1,> 18.9
8,CN(C)c1ccc(-c2nc3ccc(N)cc3[nH]2)cc1,> 15.6
9,Cc1cc(C)c2nc3sc(C(=O)N4CCCCC4)c(N)c3cc2c1,> 16.9
10,COc1ccc(/C=C/c2ccc3cccc(OC(C)=O)c3n2)cc1OC(C)=O,> 16.9
11,O=C(N/N=C/c1ccc(O)c(O)c1)c1cccc(Cl)c1,> 16.9
12,O=C(NCCCn1ccnc1)c1cc(-c2cccs2)on1,> 16.9
13,N#C/C(=C\c1ccc(O)c(O)c1)c1nc2ccccc2[nH]1,> 16.9
14,Cc1cccc2c1[nH]c1nc(N/N=C\c3c[nH]c4ccccc34)nnc12,> 16.9
15,CC(=O)c1cccc(Nc2nc(-c3ccc(O)c(O)c3)cs2)c1,13.5
16,Nc1nc(Nc2ccc(Cl)c(Cl)c2)nc2ccccc12,12.3
17,Cc1ccc(NC(=S)NC(=O)C(=O)Nc2ccccc2)cc1,> 16.9
18,C=CCNC(=O)c1sc2nc3cc(C)c(C)cc3cc2c1N,> 16.9
19,N#CC1=C(N)Oc2c(ccc3ccccc23)C1c1ccccc1 (stereo unspecified),> 16.9
20,COc1ccc(/C=C2\SC(=O)NC2=Nc2ccc(C)cc2)c(OC)c1,> 13
21,COc1ccc(/C=N/NC(=O)c2cccc(F)c2)cc1Br,> 16.9
22,COc1cccc(-c2cc(C(=O)Nc3cc(C)ccc3O)on2)c1,> 16.9
23,OCCNc1nc(Nc2ccc(Br)cc2)nc2ccccc12,7.94
24,O=C(Nc1ccccc1O)c1ccc(C(=O)c2ccccc2)cc1,> 16.8

row,SMILES,EC50 for XBP1-RLuc reporter activation [µM]
1,Oc1ccc(-c2csc3nc(-c4ccccc4)nn23)c(O)c1,> 16.9
2,CCCCCCc1ccc(-c2ncc(N)cn2)cc1,> 16.9
3,O=[N+]([O-])c1ccccc1NC(=S)N/N=C/c1ccc(O)c(O)c1,> 18.3
4,O=C(N/N=C\C(Br)=C\c1ccccc1)c1n[nH]c2c1CCCC2,> 16.9
5,Nc1ccc(-c2nc3cc(N)c(Cl)cc3[nH]2)cc1,> 14.7
6,C=CCNC(=O)c1cc(-c2ccccc2)on1,> 16.9
7,Nc1ccc2nc(-c3ccc(Cl)cc3)[nH]c2c1,> 16.9
8,Nc1ccc2nc(/C=C/c3ccco3)[nH]c2c1,> 16.9
9,COc1ccc(-c2cc(C(=O)Nc3cc(C)ccc3O)on2)cc1OC,> 16.9
10,O=C(Nc1ccc2nc(NC(=O)C3CCCCC3)sc2c1)C1CCCCC1,> 10.2
11,N#Cc1c(NC(=O)c2ccc3c(c2)OCO3)sc2c1CCCC2,> 16.9
12,Cc1cc2nc(-c3ccc(SCC#N)nc3)[nH]c2cc1C,> 16.9
13,O=C(CC(=O)Nc1ccc2nc3n(c(=O)c2c1)CCCCC3)NCc1ccco1,> 16.9
14,COc1ccc(/C=N/c2sc3c(c2C(N)=O)CCCC3)cc1,> 16.9
15,COc1ccccc1-c1cnnc(N/N=C/c2c[nH]c3ccccc23)n1,> 16.9
16,Nc1c(C(=O)Nc2ccccc2)sc2nc3c(cc12)CCCCC3,> 16.5
17,Cc1ccc(O)c(NC(=O)c2cc(-c3cccs3)on2)c1,> 16.9
18,COc1ccc(N(C(=O)c2ccccc2)S(=O)(=O)c2cc(OC)ccc2OC)cc1,5.82
19,Oc1ccccc1/C=N\Nc1nc2ccccc2o1,> 17.3
20,Cc1ccn2cc(-c3ccc(O)c(O)c3)nc2c1,11.9
21,O=C(Nc1ccc2c(c1)OCCO2)C(=O)Nc1ccccc1Cl,> 16.9
22,Cc1ccc(O)c(NC(=O)c2cc(C(C)C)on2)c1,> 16.9
23,Oc1ccc(/C=N/Nc2cccc3cccnc23)c(O)c1,9.41
